Source: patent US5011828A, “Immunostimulating guanine derivatives, compositions and methods” (priority 1988, dated 1991)

What was measured:
[1] = test system: human peripheral blood lymphocytes (sheep red blood cells as antigen); assay: Antigen-specific adjuvanticity: direct anti-SRBC plaque forming cells, human system; assay type: cell-based; settings: for Peak Direct anti-SRBC PFC/Culture: Table 7, second group
[2] = test system: SJL splenocytes (irradiated CBA/CaJ splenocyte stimulators); assay: T cell proliferation in mixed leukocyte cultures, SJL splenocytes; assay type: cell-based, mouse; settings: responder +
From the text: In evaluating the effect of a guanosine derivative on alloantigen-induced proliferation, it is imperative to minimize the simultaneous mitogenic response of B cells to contact with a guanosine derivative. Spleen cells from SJL mice (whose B cells are hyporesponsive to the mitogenic effect of a guanosine derivative, but not to its adjuvant activity) were used as responder cells in two studies. Those responder cells were stimulated with irradiated allogenic cells (from CBA/CaJ mice) in the presence of no added nucleoside, incremental amounts of a guanosine derivative of the invention, 7M8oGuo, or with another guanosine derivative, 8MGuo, used as a positive control.
(§1) ^1 Plus signs (+) are utilized to indicate the presence of the
material of the column heading in the culture medium, whereas minus signs
(-) are utilized to show absence of such a material from the culture
(§2) ^3 Allogeneic cells used to costimulate proliferation, after exposure
(§3) T Helper Cell Activation. 1.5×10^5 viable spleen cells from SJL mice or CBA/CaJ mouse thymocytes were cultured with or without an equal number of irradiated (2500 rads) spleen cells from CBA/CaJ or BDFl mice respectively, in 0.2 ml of culture medium in the presence of incremental concentrations of the exemplary 7,8-disubstituted guanine derivatives. The lymphocyte culture medium utilized was that described before, and was further supplemented with 2-mercaptoethanol to a final concentration of 50 uM. Thymocyte cultures also contained 10 percent (v/v) of a concanavalin A-conditioned rat spleen cell medium sold under the name Rat T Cell Monoclone by Collaborative Research. Following 90 hours of culture, one microCurie [^3 H]TdR per culture was admixed, and the resulting culture was maintained for a further six hour time period.
(§4) The cultures were harvested with a Brandel cell harvester (M24V, Biological Research and Development Laboratories, Rockville, Md.) onto glass fiber filter disks. Filter disks were transferred to plastic scintillation vials, covered with liquid scintillation cocktail, and counted in a Beckman LS5700 liquid scintillation counter.

[3] = test system: CBA/CaJ thymocytes (irradiated BDF1 splenocyte stimulators); assay: T cell proliferation in mixed leukocyte cultures, CBA/CaJ thymocytes; assay type: cell-based, mouse; settings: Study 3, responder +, stimulator +
From the text: A third and fourth study utilized thymocytes from CBA/CaJ mice as the stimulated (responder) cells, and irradiated BDFl mouse spleen cells as the stimulator cells. Two guanosine derivatives of the present invention, 7a8MGuo and 7a8oGuo, were used for these studies, with 8MGuo serving as positive control for one of the studies.
However, in the presence of interleukin-2 (IL-2), those cells develop responsiveness to allogeneic stimulation. The present studies utilizing thymocytes were therefore carried out in the presence of a co-stimulating amount of IL-2.
as §1, §2, §3, §4

## C=CCn1c(=S)n([C@@H]2O[C@H](CO)[C@@H](O)[C@H]2O)c2nc(N)[nH]c(=O)c21 [7a8MGuo, 7-(2-Propenyl)-8-thioxoguanosine]
[1]; person a
  Peak Direct anti-SRBC PFC/Culture: 673 PFC/Culture
[1]; person b
  Peak Direct anti-SRBC PFC/Culture: 6475 PFC/Culture
[1]; person c
  Peak Direct anti-SRBC PFC/Culture: 3058 PFC/Culture
[1]; Table 9, human, * = single study
  Average 1 Log Plaque Values: 45,630 ± 28,808 per micromole
[2]; Study 1, stimulator +, 10^-5 M
  [3H] TdR Uptake: 67,500 ± 2900 counts per minute
[2]; Study 1, stimulator -, 10^-5 M
  [3H] TdR Uptake: 36,700 ± 2400 counts per minute
[2]; Study 2, stimulator +, 10^-5 M
  [3H] TdR Uptake: 36,400 ± 3800 counts per minute
[2]; Study 2, stimulator -
  [3H] TdR Uptake: 19,100 ± 1100 counts per minute
[3]; 10^-4 M
  [3H] TdR Uptake: 21,400 ± 1200 counts per minute
[3]; 10^-5 M
  [3H] TdR Uptake: 15,300 ± 600 counts per minute
[3]; 10^-6 M
  [3H] TdR Uptake: 11,800 ± 400 counts per minute
